Laboratory results reported in patent publication US20060276407A1, “Methods of treating hepatitis C virus” (Schering Corporation, priority 2005, published 2006).
Where “and” joins values, the source holds several entries; their conditions need not be identical. Equal entries are not always repeated. Where two headings read alike, the source gives them in different places.

Legend:
[1] = tested on: bicistronic subgenomic replicon (genotype 1b); experiment: Bicistronic subgenomic replicon suppression, 72 hour assay in HuH-7 cells; format: cell-based, HCV; details: Hepatitis C virus
Description: NS3-mediated cleavage of the HCV polyprotein releases functional viral proteins essential for viral propagation. Therefore, blockage of NS3 protease activity by compound of Formula Ia is expected to inhibit viral replication in infected host cells.

[2] = Food-effect crossover bioavailability study, 600 mg fed vs fasted, healthy adult subjects (Example 2); format: in vivo, human; details: for Plasma concentration at 8 hours / Plasma concentration at 12 hours: individual subjects; for concentration at 8 hours / concentration at 12 hours / Vd/F / AUC / Cmax / half-life / Tmax: both sexes, human, plasma, po, 600 mg; for half-life: read-out: t½ (converted); for Tmax: median (range)
Description: This was a randomized, open-label, single-dose, two-treatment (fed or fasted), two-period, two-sequence crossover study of the effect of food on the bioavailability of compound of Formula Ia in 23 healthy adult male and female subjects. The primary pharmacokinetic parameters were AUC(l) and Cmax for compound of Formula Ia. The study included a 7-day wash-out period between treatment periods.
Subjects were confined at the study site at least 14 hours prior to each treatment (Day −1). On the morning of Day 1, following a 10-hour overnight fast, subjects were randomized to receive in a particular order Treatment A and Treatment B: • Treatment A: compound of Formula Ia 600 mg (6×100 mg capsules) PO following an overnight fast. • Treatment B: compound of Formula Ia 600 mg (6×100 mg capsules) PO within 20 minutes following the completion of a standard high-fat breakfast. There was a 7-day wash-out period between receiving treatments.
Subjects receiving Treatment A received a formulation of compound of Formula Ia comprised of compound of Formula Ia and a pharmaceutically acceptable carrier, such as microcrystalline cellulose, while continuing to fast, while subjects randomized to Treatment B consumed a standardized high-fat meal prior to compound administration (within 20 minutes prior to the compound administration). The capsules along with approximately 240 mL of water were swallowed whole, not chewed or crushed. […] Water was permitted as desired except for 1 hour before and after compound administration. A washout period of at least 7 days separated the two treatment periods. Upon return to the clinic, subjects underwent the same procedures as the first period and continued the randomization sequence (subjects who received compound of Formula Ia fasted in Period 1 and then received compound of Formula Ia under fed conditions in Period 2, and vice versa).
Blood samples (7 mL each) for the determination of compound of Formula Ia levels were drawn immediately prior to dosing (0 hour), and at 0.5, 1, 1.5, 2, 2.5, 3, 4, 5, 6, 8, 12, 24, 36, and 48 hours after dosing. The blood samples were collected into tubes containing EDTA. The samples were centrifuged at 1500 g for 10 minutes to obtain plasma and the plasma samples were frozen at −20° C. and maintained in the frozen state until assayed.
Plasma concentrations of compound of Formula Ia were determined using a validated liquid chromatography tandem mass spectrometry (LC-MS/MS) method. The assay lower limit of quantitation (LLOQ) was 0.50 ng/mL and the method was validated over the concentration range of 0.50 to 1000 ng/mL.
The mean and percent coefficient of variation (% CV) were calculated for plasma concentrations of compound of Formula Ia at each time point. Concentration values less than the assay LLOQ were reported as, and set to zero in the tables and calculations. The plasma concentration-time data for compound of Formula Ia were subjected to pharmacokinetic analysis by noncompartmental methods using WinNonlin software. Nominal sampling times were used for pharmacokinetic analysis, since none of the pharmacokinetic sampling time deviations were >10% of the nominal times. For each subject, the following pharmacokinetic parameters were determined for compound of Formula Ia: maximum plasma concentration (Cmax), time of maximum observed plasma concentration (Tmax), the final quantifiable sampling time (tf), area under the plasma concentration-time curve from time 0 to tf (AUC[tf]), AUC(l) (AUC[tf]+ C[tf]estimated/K) and Vd/F. The K and C(tf)estimated are defined as terminal elimination rate constant and estimated concentration at final quantifiable sample, respectively. Terminal phase half-life (t½=ln 2/K) and apparent clearance (CLUF=Dose/AUC[l]) were also determined. Cmax, Tmax and tf were the observed values. […]

[3] = 600 mg PO, fasted, mean, balanced data
[4] = 600 mg PO, fed (high-fat breakfast), mean, balanced data
[5] = 600 mg PO, standardized high-fat meal

For `CC(C)(C)NC(=O)N[C@H](C(=O)N1C[C@H]2[C@@H]([C@H]1C(=O)NC(CC1CCC1)C(=O)C(N)=O)C2(C)C)C(C)(C)C` (mixture of isomers) [Formula Ia, (1 R, 5S)-N-[3-Amino-1-(Cyclobutylmethyl)-2,3-Dioxopropyl]-3-[2(S)-[[[(1,1-Dimethylethyl)Amino]Carbonyl]Amino]-3,3-Dimethyl-1-Oxobutyl]-6,6-Dimethyl-3-Azabicyclo[3.1.0]Hexan-2(S)-Carboxamide], the IC50 ([1]; n=25, read-out: IC50 for suppression (4-log reduction) of the replicon (converted)) was roughly 200 nM, the IC90 ([1]; n=25, read-out: IC90 for suppression (4-log reduction) of the replicon (converted)) was roughly 400 nM and the “Apparent mean Vd/F, fed versus fasted states” value ([2]; 600 mg PO) was “about five”. The “Median concentration at the 8-hour time point, fed state relative to fasted state” value ([2]; 600 mg PO) was “more than 4 fold”, the “Median concentration at the 12-hour time point, increase in fed state relative to fasted state” value ([2]; 600 mg PO) was 2 fold and the “AUC(l) Ratio Estimate (fed to fasted)” value ([2]; 600 mg PO, Female (n = 10)) was 225%. The “AUC(tf) Ratio Estimate (fed to fasted)” value ([2]; 600 mg PO, Female (n = 10)) was 229%, the “Cmax Ratio Estimate (fed to fasted)” value ([2]; 600 mg PO, Female (n = 10)) was 170% and the “AUC(l) Ratio Estimate (fed to fasted)” value ([2]; 600 mg PO, Male (n = 10)) was 202%. The “AUC(tf) Ratio Estimate (fed to fasted)” value ([2]; 600 mg PO, Male (n = 10)) was 205%, the “Cmax Ratio Estimate (fed to fasted)” value ([2]; 600 mg PO, Male (n = 10)) was 155% and the “Plasma concentration at 8 hours” value ([2]; 600 mg PO, fasted) was 37.5 ng/mL and 18.7 ng/mL and 37.4 ng/mL and 13.4 ng/mL and 77.9 ng/mL and 39.0 ng/mL and 46.6 ng/mL and 50.0 ng/mL and 66.8 ng/mL and 19.3 ng/mL and 8.50 ng/mL and 27.3 ng/mL and 24.8 ng/mL and 24.1 ng/mL and 81.3 ng/mL and 58.0 ng/mL and 33.5 ng/mL and 28.7 ng/mL and 27.8 ng/mL. The “Plasma concentration at 12 hours” value ([2]; 600 mg PO, fasted) was 20.9 ng/mL and 8.12 ng/mL and 27.0 ng/mL and 4.90 ng/mL and 21.3 ng/mL and 16.3 ng/mL and 18.3 ng/mL and 20.6 ng/mL and 11.4 ng/mL and 4.46 ng/mL and 3.11 ng/mL and 13.2 ng/mL and 9.56 ng/mL and 19.6 ng/mL and 26.6 ng/mL and 14.3 ng/mL and 9.33 ng/mL and 9.50 ng/mL and 10.7 ng/mL, the CL/F [2, 3] was 393 L/h and the CL/F [2, 4] was 179 L/h. For the same compound, the “Plasma concentration at 8 hours” value ([2]; 600 mg PO, fed) was 33.8 ng/mL and 62.2 ng/mL and 190 ng/mL and 92.4 ng/mL and 442 ng/mL and 81.4 ng/mL and 54.3 ng/mL and 675 ng/mL and 392 ng/mL and 949 ng/mL and 46.1 ng/mL and 426 ng/mL and 283 ng/mL and 55.6 ng/mL and 164 ng/mL and 612 ng/mL and 54.8 ng/mL and 447 ng/mL and 33.6 ng/mL, the “Plasma concentration at 12 hours” value ([2]; 600 mg PO, fed) was 7.34 ng/mL and 11.2 ng/mL and 27.8 ng/mL and 13.6 ng/mL and 37.2 ng/mL and 13.9 ng/mL and 33.5 ng/mL and 384 ng/mL and 184 ng/mL and 54.2 ng/mL and 6.70 ng/mL and 22.2 ng/mL and 140 ng/mL and 10.4 ng/mL and 87.3 ng/mL and 109 ng/mL and 9.17 ng/mL and 48.8 ng/mL and 7.09 ng/mL and the “AUC(l) Ratio Estimate (fed to fasted)” value ([2]; 600 mg PO, n = 20) was 214%. The “AUC(tf) Ratio Estimate (fed to fasted)” value ([2]; 600 mg PO, n = 20) was 217%, the “Cmax Ratio Estimate (fed to fasted)” value ([2]; 600 mg PO, n = 20) was 162% and the “Increase of Cmax in the fed state” value [2, 5] was 62%. For the same compound, the “Increase of mean relative bioavailability (AUC) in the fed state relative to fasted” value [2, 5] was “over 100%”, the “Safety profile (treatment emergent and treatment related AEs)” value ([2]; 600 mg oral dose, both fed and fasted states) was “low frequency of treatment emergent and treatment related AEs” and the concentration at 8 hours ([2]; 600 mg PO, fasted, Max) was 81.3 ng/mL. For the same compound, the concentration at 12 hours ([2]; 600 mg PO, fasted, Max) was 27 ng/mL, the concentration at 8 hours ([2]; 600 mg PO, fasted, Min) was 8.5 ng/mL and the concentration at 12 hours ([2]; 600 mg PO, fasted, Min) was 3.11 ng/mL. For the same compound, the concentration at 8 hours ([2]; 600 mg PO, fasted, mean) was 37.9 ng/mL, the concentration at 12 hours ([2]; 600 mg PO, fasted, mean) was 14.2 ng/mL and the Vd/F [2, 3] was 6730 L. For the same compound, the AUC ([2]; 600 mg PO, fasted, mean, balanced data, read-out: AUC(l)) was 1750 ng·h/mL, the AUC ([2]; 600 mg PO, fasted, mean, balanced data, read-out: AUC(tf)) was 1720 ng·h/mL and the Cmax ([2]; 600 mg PO, fasted, mean, balanced data, read-out: Cmax) was 448 ng/mL. It also gave a half-life [2, 3] of 12 h, a concentration at 8 hours ([2]; 600 mg PO, fasted, median) of 33.5 ng/mL and a concentration at 12 hours ([2]; 600 mg PO, fasted, median) of 13.2 ng/mL. The Tmax ([2]; 600 mg PO, fasted, balanced data) was 2 h, the AUC ([2]; 600 mg PO, fasted, n = 20, read-out: AUC(l), model-based (least square) mean) was 1650 ng·h/mL and the AUC ([2]; 600 mg PO, fasted, n = 20, read-out: AUC(tf), model-based (least square) mean) was 1620 ng·h/mL. For the same compound, the Cmax ([2]; 600 mg PO, fasted, n = 20, read-out: Cmax, model-based (least square) mean) was 418 ng/mL, the Vd/F [2, 4] was 1150 L and the AUC ([2]; 600 mg PO, fed (high-fat breakfast), mean, balanced data, read-out: AUC(l)) was 3700 ng·h/mL. For the same compound, the AUC ([2]; 600 mg PO, fed (high-fat breakfast), mean, balanced data, read-out: AUC(tf)) was 3660 ng·h/mL, the Cmax ([2]; 600 mg PO, fed (high-fat breakfast), mean, balanced data, read-out: Cmax) was 790 ng/mL and the half-life [2, 4] was 4.72 h. The Tmax ([2]; 600 mg PO, fed (high-fat breakfast), balanced data) was 5 h, the concentration at 8 hours ([2]; 600 mg PO, fed, Max) was 949 ng/mL and the concentration at 12 hours ([2]; 600 mg PO, fed, Max) was 384 ng/mL. For the same compound, the concentration at 8 hours ([2]; 600 mg PO, fed, Min) was 33.6 ng/mL, the concentration at 12 hours ([2]; 600 mg PO, fed, Min) was 6.7 ng/mL and the concentration at 8 hours ([2]; 600 mg PO, fed, mean) was 268 ng/mL. The concentration at 12 hours ([2]; 600 mg PO, fed, mean) was 63.5 ng/mL, the concentration at 8 hours ([2]; 600 mg PO, fed, median) was 164 ng/mL and the concentration at 12 hours ([2]; 600 mg PO, fed, median) was 27.8 ng/mL. It also gave an AUC ([2]; 600 mg PO, fed, n = 20, read-out: AUC(l), model-based (least square) mean) of 3530 ng·h/mL, an AUC ([2]; 600 mg PO, fed, n = 20, read-out: AUC(tf), model-based (least square) mean) of 3500 ng·h/mL and a Cmax ([2]; 600 mg PO, fed, n = 20, read-out: Cmax, model-based (least square) mean) of 678 ng/mL.
